{"source": "patent US20260108546A1", "about": "(ELI LILLY AND COMPANY, priority 2024, published 2026)", "target": "T1, hGIP-R (Homo sapiens, UniProt P48546)", "T1 construct": "expressed in transfected cells; host or cells: HEK-293 clonal cell lines", "T1 sequence (P48546 22-466)": "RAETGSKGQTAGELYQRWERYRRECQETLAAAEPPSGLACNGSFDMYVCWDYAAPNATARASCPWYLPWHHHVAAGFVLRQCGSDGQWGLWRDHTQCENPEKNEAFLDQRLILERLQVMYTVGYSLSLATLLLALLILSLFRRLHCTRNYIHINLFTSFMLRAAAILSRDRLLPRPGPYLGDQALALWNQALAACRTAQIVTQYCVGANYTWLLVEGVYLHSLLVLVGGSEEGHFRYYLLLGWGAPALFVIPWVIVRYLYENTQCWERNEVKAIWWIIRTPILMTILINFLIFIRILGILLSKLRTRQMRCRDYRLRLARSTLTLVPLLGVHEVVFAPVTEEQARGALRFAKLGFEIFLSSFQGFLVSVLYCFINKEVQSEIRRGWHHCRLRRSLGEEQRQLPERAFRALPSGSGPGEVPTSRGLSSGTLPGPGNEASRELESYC", "test": "Functional hGIP-R Assay (cAMP formation, HTRF)", "format": "cell-based", "settings": "for Emax: cAMP efficacy, percent of maximal response to GIP(1-42)OH, 37° C., 0.1% bovine casein, arithmetic mean ± SEM; for EC50: cAMP potency, HEK-293 cells expressing hGIP-R, incubated at 37° C. in the presence of 0.1% bovine casein, geometric mean, read-out: Human GIP-R EC50, nM (SEM, n)", "in_short": "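Relative EC50 and Emax came from four-parameter logistic fits of cAMP as a percent of the human GIP (1-42) OH maximal response. The cAMP was measured by competitive HTRF after 30 min, 37 °C compound exposure of hGIP-R HEK-293 clones in IBMX (250 μM)-containing medium.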", "data": [{"smiles": "Cn1cc(C[C@@H](NC(=O)[C@H]2C[C@@H]2c2ccc(-c3cnc4nn(C)cc4c3)cc2)C(=O)NC(C)(C)Cn2nc(C(F)(F)F)cc2C2CCC2)cn1", "note": "[Example 51, (1S,2S)-N—((R)-1-((1-(5-Cyclobutyl-3-(trifluoromethyl)-1H-pyrazol-1-yl)-2-methylpropan-2-yl)amino)-3-(1-methyl-1H-pyrazol-4-yl)-1-oxopropan-2-yl)-2-(4-(2-methyl-2H-pyrazolo[3,4-b]pyridin-5-yl)phenyl)cyclopropane-1-carboxamide]", "values": [{"measurement": "Emax", "result": "120 ± 6.49", "unit": "%"}, {"measurement": "EC50", "result": 62.7, "unit": "nM"}]}, {"smiles": "[2H]C([2H])([2H])n1cc(C[C@H](C(=O)NC(C)(C)Cn2nc(C(F)(F)F)cc2-c2cnc(C(C)(C)O)nc2)N2CC[C@@]3(C[C@@H]3c3ccc(-c4cnc5nn(C6CC6)cc5c4)nc3C)C2=O)cn1", "note": "[Example 191, (R)-2-((1R,3R)-1-(6-(2-cyclopropyl-2H-pyrazolo[3,4-b]pyridin-5-yl)-2-methylpyridin-3-yl)-4-oxo-5-azaspiro[2.4]heptan-5-yl)-N-(1-(5-(2-(2-hydroxypropan-2-yl)pyrimidin-5-yl)-3-(trifluoromethyl)-1H-pyrazol-1-yl)-2-methylpropan-2-yl)-3-(1-(methyl-d3)-1H-pyrazol-4-yl)propanamide]", "values": [{"measurement": "Emax", "result": "78.5 ± 0.865", "unit": "%"}, {"measurement": "EC50", "result": 2.89, "unit": "nM"}]}, {"smiles": "[2H]C([2H])([2H])n1cc(C[C@H](C(=O)NC(C)(C)Cn2nc(C(F)(F)F)cc2-c2ccc(C)nc2)N2CC[C@@]3(C[C@@H]3c3ccc(-c4cnc5nc(C6CC6)cn5c4)nc3C)C2=O)cn1", "note": "[Example 175, (R)-2-((1R,3R)-1-(6-(2-cyclopropylimidazo[1,2-a]pyrimidin-6-yl)-2-methylpyridin-3-yl)-4-oxo-5-azaspiro[2.4]heptan-5-yl)-N-(2-methyl-1-(5-(6-methylpyridin-3-yl)-3-(trifluoromethyl)-1H-pyrazol-1-yl)propan-2-yl)-3-(1-(methyl-d3)-1H-pyrazol-4-yl)propanamide]", "values": [{"measurement": "Emax", "result": "112 ± 1.44", "unit": "%"}, {"measurement": "EC50", "result": 0.996, "unit": "nM"}]}, {"smiles": "Cn1cc2cc(-c3ccc([C@H]4C[C@@]45CCN([C@H](Cc4cnn(C(F)F)c4)C(=O)NC(C)(C)Cn4nc(C(F)(F)F)cc4-c4ccc(P(C)(C)=O)cc4)C5=O)c(Cl)c3)cnc2n1", "note": "[Example 162, (R)-2-((1S,3R)-1-(2-chloro-4-(2-methyl-2H-pyrazolo[3,4-b]pyridin-5-yl)phenyl)-4-oxo-5-azaspiro[2.4]heptan-5-yl)-3-(1-(difluoro-methyl)-1H-pyrazol-4-yl)-N-(1-(5-(4-(dimethyl-phosphoryl)phenyl)-3-(trifluoro-methyl)-1H-pyrazol-1-yl)-2-methylpropan-2-yl)propanamide]", "values": [{"measurement": "Emax", "result": 50, "unit": "%"}, {"measurement": "EC50", "result": 0.179, "unit": "nM"}]}, {"smiles": "Cn1cc(C[C@@H](NC(=O)[C@H]2C[C@@H]2c2ccc(-c3cnc4nn(C)cc4c3)cc2)C(=O)NC(C)(C)Cn2nc(C(F)(F)F)cc2-c2cnn(C)n2)cn1", "note": "[Example 66, (1S,2S)-N—((R)-1-((2-Methyl-1-(5-(2-methyl-2H-1,2,3-triazol-4-yl)-3-(trifluoromethyl)-1H-pyrazol-1-yl)propan-2-yl)amino)-3-(1-methyl-1H-pyrazol-4-yl)-1-oxopropan-2-yl)-2-(4-(2-methyl-2H-pyrazolo[3,4-b]pyridin-5-yl)phenyl)cyclopropane-1-carboxamide]", "values": [{"measurement": "Emax", "result": "118 ± 0.533", "unit": "%"}, {"measurement": "EC50", "result": 99.3, "unit": "nM"}]}, {"smiles": "Cn1cc(C[C@@H](NC(=O)[C@H]2C[C@@H]2c2ccc(-c3cnc4nccn4c3)cc2)C(=O)NC(C)(C)Cn2nc(C(F)(F)F)cc2-c2cnn(C)c2)cn1", "note": "[Example 28, (1S,2S)-2-(4-(Imidazo[1,2-a]pyrimidin-6-yl)phenyl)-N-((R)-1-((2-methyl-1-(1′-methyl-5-(trifluoromethyl)-1′H,2H-[3,4′-bipyrazol]-2-yl)propan-2-yl)amino)-3-(1-methyl-1H-pyrazol-4-yl)-1-oxopropan-2-yl)cyclopropane-1-carboxamide]", "values": [{"measurement": "Emax", "result": "91.9 ± 0.597", "unit": "%"}, {"measurement": "EC50", "result": 20.5, "unit": "nM"}]}, {"smiles": "Cn1cc(C[C@@H](NC(=O)[C@H]2C[C@@H]2c2ccc(-c3cnc4nn(C)cc4c3)cc2)C(=O)NC(C)(C)Cn2nc(C(F)(F)F)cc2-c2cc3c(=O)[nH]cnn3c2)cn1", "note": "[Example 57, (1S,2S)-N-((R)-1-((2-Methyl-1-(5-(4-oxo-3,4-dihydropyrrolo[2,1-f][1,2,4]triazin-6-yl)-3-(trifluoromethyl)-1H-pyrazol-1-yl)propan-2-yl)amino)-3-(1-methyl-1H-pyrazol-4-yl)-1-oxopropan-2-yl)-2-(4-(2-methyl-2H-pyrazolo[3,4-b]pyridin-5-yl)phenyl) cyclopropane-1-carboxamide]", "values": [{"measurement": "Emax", "result": "112 ± 14.8", "unit": "%"}, {"measurement": "EC50", "result": 61, "unit": "nM"}]}, {"smiles": "Cn1cc(C[C@@H](NC(=O)[C@H]2C[C@@H]2c2ccc(-c3cnc4nn(C)cc4c3)cc2)C(=O)NC(C)(C)Cn2nc(C(F)(F)F)cc2-c2cccn(C)c2=O)cn1", "note": "[Example 58, (1S,2S)-N-((R)-1-((2-Methyl-1-(5-(1-methyl-2-oxo-1,2-dihydropyridin-3-yl)-3-(trifluoromethyl)-1H-pyrazol-1-yl)propan-2-yl)amino)-3-(1-methyl-1H-pyrazol-4-yl)-1-oxopropan-2-yl)-2-(4-(2-methyl-2H-pyrazolo[3,4-b]pyridin-5-yl)phenyl) cyclopropane-1-carboxamide]", "values": [{"measurement": "Emax", "result": "110 ± 1.71", "unit": "%"}, {"measurement": "EC50", "result": 23.8, "unit": "nM"}]}]}
